The record followed here is patent publication US12662491B2 (Redona Therapeutics, Inc., priority 2020, dated 2026).

Each structure is given as a SMILES string.

In the experiment the target is T1, Zcchc11 enzyme (Homo sapiens, UniProt Q5TAX3).
T1 construct: made in house; host or cells: HEK293 cells (Zcchc11); E. coli Rosetta II (LIN28A)
T1 sequence (Q5TAX3 212-1420): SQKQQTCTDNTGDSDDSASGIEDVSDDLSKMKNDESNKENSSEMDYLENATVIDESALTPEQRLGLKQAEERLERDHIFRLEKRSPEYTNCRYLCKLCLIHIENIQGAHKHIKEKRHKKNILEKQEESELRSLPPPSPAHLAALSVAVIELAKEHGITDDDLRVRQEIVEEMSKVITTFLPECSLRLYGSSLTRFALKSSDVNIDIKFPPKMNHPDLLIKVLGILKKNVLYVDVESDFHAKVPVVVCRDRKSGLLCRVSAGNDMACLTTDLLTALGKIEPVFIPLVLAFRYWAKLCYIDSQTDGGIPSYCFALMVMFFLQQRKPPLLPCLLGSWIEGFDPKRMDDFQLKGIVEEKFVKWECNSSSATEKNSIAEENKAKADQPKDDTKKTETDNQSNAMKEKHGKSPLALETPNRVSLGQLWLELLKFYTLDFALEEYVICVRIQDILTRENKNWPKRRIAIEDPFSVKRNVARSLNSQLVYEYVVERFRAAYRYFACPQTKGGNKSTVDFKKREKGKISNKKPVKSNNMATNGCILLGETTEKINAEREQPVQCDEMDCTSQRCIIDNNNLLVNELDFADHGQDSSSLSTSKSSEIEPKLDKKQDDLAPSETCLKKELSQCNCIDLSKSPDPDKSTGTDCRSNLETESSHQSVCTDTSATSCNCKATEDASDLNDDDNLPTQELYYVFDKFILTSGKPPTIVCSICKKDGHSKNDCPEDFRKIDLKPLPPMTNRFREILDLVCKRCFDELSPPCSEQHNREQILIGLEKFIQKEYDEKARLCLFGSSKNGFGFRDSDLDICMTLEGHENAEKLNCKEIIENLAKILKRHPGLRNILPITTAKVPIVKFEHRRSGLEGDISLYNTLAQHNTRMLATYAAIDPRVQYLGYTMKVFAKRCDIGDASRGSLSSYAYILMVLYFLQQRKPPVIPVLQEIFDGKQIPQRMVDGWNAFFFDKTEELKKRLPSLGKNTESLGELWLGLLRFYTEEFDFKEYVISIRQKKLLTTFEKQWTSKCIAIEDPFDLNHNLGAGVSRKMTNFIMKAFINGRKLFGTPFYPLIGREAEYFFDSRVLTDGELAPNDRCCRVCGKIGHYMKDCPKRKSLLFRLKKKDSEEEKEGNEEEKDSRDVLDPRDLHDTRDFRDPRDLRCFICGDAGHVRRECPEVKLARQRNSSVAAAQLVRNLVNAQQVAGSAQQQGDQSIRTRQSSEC
Put plainly: TUTase assay (Zcchc11 assay, Lin28a-dependent polyuridylation of pre-let-7). In kind it is biochemical. The note with it: Lin28a-dependent Zcchc11 (Z11) TUTase activity; read-out: Potency Lin28a-dep Z11 IC50. The method, then:
The purpose of the Zcchc11 assay is to determine compound potency against Zcchc11 enzyme through the measurement of IC50. Compound inhibition is measured as a function of polyuridine tails added to RNA substrates in the presence of active TUTase, UTP, and inhibitor. The Zcchc11 assay was done in a black, non-binding, 384 well plate (Corning #3575). All steps were performed at room temperature. For a typical assay, a 29 ul aliquot of assay buffer (50 mM HEPES pH 7.3, 150 mM KCl, 5 mM MgCl2, 10 mM DTT, 0.01% Triton X-100, 40 U/ml RNAsin (Promega)) containing LIN28A protein (final concentration: 10 nM) is added to each well. Next, 1 ul of compound in 100% DMSO is transferred from a compound dilution plate in which the compound is serially diluted. Next, 10 ul of a 5× mix of Zcchc11 and RNA substrate (5′-fluorescein labeled pre-let-7 miRNA (Dharmacon)) is added (final concentrations: 0.2 nM and 2 nM, respectively). The plate is placed on a plate shaker for 30 seconds to produce mixing, then incubated for 30 minutes. Next, 10 ul of a 5× mix of UTP and the quenching probe (3′-rhodamine labeled A20, polyadenosine nucleotide, (IDT)) is added (final concentrations: 5 uM and 4 nM, respectively). The plate is immediately placed in a Biotek Cytation 5 plate reader, and the time-dependent decrease in fluorescein fluorescence resulting from annealing of the A20 probe to polyuridine tails is recorded, using the kinetics mode of the reader. Reaction rates are obtained using linear fits to the early portion of progress curves. IC50 values are calculated using a four parameter fit with 100% enzyme activity determined from the DMSO control and 0% activity from control samples lacking UTP.
The LIN28A protein was expressed in and purified from E. coli, strain Rosetta II (Novagen). The entire coding sequence of the human, wild-type protein was cloned into expression vector pMAL (NEB), down-stream from a maltose-binding protein tag. The linker sequence contained a TEV protease cleavage site. The protein was purified from bacterial extracts using an MBP-Trap column (GE Healthcare Life Sciences), followed by tag cleavage and removal of the tag by ion-exchange chromatography. When necessary, contaminating bacterial RNA was removed using the procedure describe by Faehnle C R. et al. (2017) Multi-domain utilization by TUT4 and TUT7 in control of let-7 biogenesis. Nat Struct Mol Biol, 24:658-665.
The Zcchc11 protein was expressed in and purified from HEK293 cells. A truncated protein comprising residues 212-1420 of the human sequence was cloned into expression vector pTT5 (Viva Biotech) down-stream from a maltose-binding protein tag. The linker sequence contained a TEV protease cleavage site, and a FLAG tag was added to the carboxyl terminus of the protein. The protein was purified from cell extracts using an MBP-Trap column (GE Healthcare Life Sciences), followed by tag cleavage and further enrichment of the full length construct using anti-FLAG affinity media (Sigma Aldrich).
“+” represents an IC50 value that is greater than 50 μM; “++” represents an IC50 value that is greater than 10 μM and equal to or less than 50 μM; “+++” represents an IC50 value that is greater than 1 μM and equal to or less than 10 μM; and “++++” represents an IC50 value that is equal to or less than 1 μM.
In the case of `COc1ccc(Cl)c(OC[C@H]2C[C@H]3C[C@H]3N2c2cc3c(cc2F)c(=O)c(C(=O)O)cn3-c2ccc(N3CC(N(C)C)C3)nc2)n1` (racemic) [Compound 234, Rac-7-((1R,3R,5R)-3-(((3-chloro-6-methoxy-pyridin-2-yl)oxy)methyl)-2-azabicyclo [3.1.0]hexan-2-yl)-1-(6-(3-(dimethyl-amino)azetidin-1-yl)pyridin-3-yl)-6-fluoro-4-oxo-1,4-dihydro-quinoline-3-carboxylic acid], the IC50 (as a rule, the point on the concentration scale where inhibition reaches its midpoint) was at most 1000 nM.
With `COc1ccc(F)c(OC[C@H]2C[C@H]3C[C@H]3N2c2cc3c(cc2F)c(=O)c(C(=O)O)cn3-c2ccnc(N)c2)n1` (racemic) [Compound 235, Rac-1-(2-aminopyridin-4-yl)-6-fluoro-7-((1R,3R,5R)-3-(((3-fluoro-6-methoxy-pyridin-2-yl)oxy)methyl)-2-azabicyclo [3.1.0]hexan-2-yl)-4-oxo-1,4-dihydro-quinoline-3-carboxylic acid], the IC50 was at most 1000 nM.
The result for `Cn1cc(-n2cc(C(=O)O)c(=O)c3cc(C#N)c(N4CCCC4COc4ncccc4F)cc32)cn1` (racemic) [Compound 245, rac-(R)-6-cyano-7-(2-(((3-fluoropyridin-2-yl)oxy)methyl)pyrrolidin-1-yl)-1-(1-methyl-1H-pyrazol-4-yl)-4-oxo-1,4-dihydro-quinoline-3-carboxylic acid] reads at most 1000 nM; that for `COCCN(C)C1CN(c2ccc(-n3cc(C(=O)O)c(=O)c4cc(F)c(N5CC[C@H](C)[C@@H]5COc5ncccc5Cl)cc43)cn2)C1` (racemic) [Compound 262, rac-7-((2R,3S)-2-(((3-chloropyridin-2-yl)oxy)methyl)-3-methyl-pyrrolidin-1-yl)-6-fluoro-1-(6-(3-((2-methoxy-ethyl)(methyl)amino)azetidin-1-yl)pyridin-3-yl)-4-oxo-1,4-dihydro-quinoline-3-carboxylic acid], at most 1000 nM; that for `O=C(O)c1cn(-c2cnc(OCc3ccccc3)cn2)c2cc(N3CCC[C@@H]3COc3ncccc3Cl)c(Cl)cc2c1=O` (racemic) [Compound 263, rac-(R)-1-(5-(benzyloxy)pyrazin-2-yl)-6-chloro-7-(2-(((3-chloropyridin-2-yl)oxy)methyl)pyrrolidin-1-yl)-4-oxo-1,4-dihydro-quinoline-3-carboxylic acid], at most 1000 nM.
The result for `CN(C)C1CN(c2ccc(-n3cc(C(=O)O)c(=O)c4cc(Cl)c(N5CCC[C@@H]5COc5nc6c(cc5Cl)ncn6C)cc43)cn2)C1` (racemic) [Compound 274, rac-(R)-6-chloro-7-(2-(((6-chloro-3-methyl-3H-imidazo [4,5-b]pyridin-5-yl)oxy)methyl)pyrrolidin-1-yl)-1-(6-(3-(dimethyl-amino)azetidin-1-yl)pyridin-3-yl)-4-oxo-1,4-dihydro-quinoline-3-carboxylic acid] reads at most 1000 nM; that for `Cn1cc(-n2cc(C(=O)O)c(=O)c3cc(F)c(N4CCC[C@@H]4COc4ncccc4F)cc32)cn1` (racemic) [Compound 290, rac-(R)-6-fluoro-7-(2-(((3-fluoropyridin-2-yl)oxy)methyl)pyrrolidin-1-yl)-1-(1-methyl-1H-pyrazol-4-yl)-4-oxo-1,4-dihydro-quinoline-3-carboxylic acid], at most 1000 nM; that for `CN(C)C1CN(c2ccc(-n3cc(C(=O)O)c(=O)c4cc(Cl)c(N5CC(F)(F)C[C@@H]5COc5ncccc5Cl)cc43)cn2)C1` (racemic) [Compound 305, rac-(R)-6-chloro-7-(2-(((3-chloropyridin-2-yl)oxy)methyl)-4,4-difluoro-pyrrolidin-1-yl)-1-(6-(3-(dimethyl-amino)azetidin-1-yl)pyridin-3-yl)-4-oxo-1,4-dihydro-quinoline-3-carboxylic acid], at most 1000 nM.
With `CN(C)C1CN(c2ccc(-n3cc(C(=O)O)c(=O)c4cc(Cl)c(N5CC(c6cccnn6)C[C@@H]5COc5ncccc5Cl)cc43)cn2)C1` (mixture of isomers) [Compound 307, rac-6-chloro-7-((2R)-2-(((3-chloropyridin-2-yl)oxy)methyl)-4-(pyridazin-3-yl)pyrrolidin-1-yl)-1-(6-(3-(dimethyl-amino)azetidin-1-yl)pyridin-3-yl)-4-oxo-1,4-dihydro-quinoline-3-carboxylic acid], the half-inhibitory concentration (IC50) is at most 1000 nM.
The result for `O=C(O)c1cn2c3cc(c(F)cc3c1=O)N1CCC[C@@H]1COc1ncccc1OCCOc1ccc-2cc1` (racemic) [Compound 312, rac-(R)-26-fluoro-24-oxo-21,24-dihydro-5,7,10-trioxa-2(1,7)-quinolina-6(2,3)-pyridina-3(1,2)-pyrrolidina-1(1,4)-benzenacyclo-decaphane-23-carboxylic acid formic acid] reads above 50000 nM; that for `NCCOc1cccnc1OC[C@H]1CCCN1c1cc2c(cc1Cl)c(=O)c(C(=O)O)cn2-c1ccc(Br)nc1` (racemic) [Compound 313, rac-(R)-7-(2-(((3-(2-aminoethoxy)pyridin-2-yl)oxy)methyl)pyrrolidin-1-yl)-1-(6-bromopyridin-3-yl)-6-chloro-4-oxo-1,4-dihydro-quinoline-3-carboxylic acid], at most 1000 nM; that for `CN(C)C1CN(c2ccc(-n3cc(C(=O)O)c(=O)c4cc(Cl)c(N5CCC[C@@]5(C)COc5ncccc5Cl)cc43)cn2)C1` (racemic) [Compound 314, rac-(R)-6-chloro-7-(2-(((3-chloropyridin-2-yl)oxy)methyl)-2-methyl-pyrrolidin-1-yl)-1-(6-(3-(dimethyl-amino)azetidin-1-yl)pyridin-3-yl)-4-oxo-1,4-dihydro-quinoline-3-carboxylic acid formic acid], at most 1000 nM.
The result for `CN(C)C1CN(c2ccc(-n3cc(C(=O)O)c(=O)c4cc(Cl)c(N5CC(c6ccccn6)C[C@@H]5COc5ncccc5Cl)cc43)cn2)C1` (mixture of isomers) [Compound 315, rac-6-chloro-7-((2R)-2-(((3-chloropyridin-2-yl)oxy)methyl)-4-(pyridin-2-yl)pyrrolidin-1-yl)-1-(6-(3-(dimethyl-amino)azetidin-1-yl)pyridin-3-yl)-4-oxo-1,4-dihydro-quinoline-3-carboxylic acid] reads at most 1000 nM.
